In US5635593A (priority 1995, dated 1997):
Entries after “also recorded” stand apart in the source; their conditions may differ. Peptide text beside a SMILES is read from it.

Experiments:
BK1 receptor = target: T1, BK1 receptor (Oryctolagus cuniculus, UniProt P48748); assay: rabbit aorta in vitro, reversal of des-Arg^9 -BK contraction; parameters: on rabbit aorta (BK1 -receptor) in vitro; from tissue; host or cells: rabbit aorta; conditions: negative log of molar concentration causing 50% reversal of des-Arg^9 -BK (10^-7 M) contraction
T1 sequence (P48748 1-352): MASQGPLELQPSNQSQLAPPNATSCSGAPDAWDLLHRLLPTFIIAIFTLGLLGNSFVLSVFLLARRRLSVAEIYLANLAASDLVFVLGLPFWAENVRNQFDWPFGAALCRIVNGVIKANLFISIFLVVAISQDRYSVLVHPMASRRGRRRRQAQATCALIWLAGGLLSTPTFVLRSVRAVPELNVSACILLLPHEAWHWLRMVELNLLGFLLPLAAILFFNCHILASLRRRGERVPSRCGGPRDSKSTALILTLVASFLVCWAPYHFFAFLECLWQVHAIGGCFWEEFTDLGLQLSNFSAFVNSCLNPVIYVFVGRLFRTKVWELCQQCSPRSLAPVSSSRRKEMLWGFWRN
Method: Each antagonist was then added, in a cumulative fashion, on top of the contraction and the negative log of the molar concentration of the antagonist causing a 50% reversal (IC50) of the […] measured.

BK2 -receptor = target: T2, BK2 -receptor (Rattus norvegicus, UniProt P25023); assay: rat uterus (RU) in vitro, antagonism of BK; conditions: against BK
T2 construct: guinea-pig ileum (GPI), rat uterus (RU) and rabbit jugular vein (RJV); from tissue; host or cells: rat uterus
T2 sequence (P25023 1-396): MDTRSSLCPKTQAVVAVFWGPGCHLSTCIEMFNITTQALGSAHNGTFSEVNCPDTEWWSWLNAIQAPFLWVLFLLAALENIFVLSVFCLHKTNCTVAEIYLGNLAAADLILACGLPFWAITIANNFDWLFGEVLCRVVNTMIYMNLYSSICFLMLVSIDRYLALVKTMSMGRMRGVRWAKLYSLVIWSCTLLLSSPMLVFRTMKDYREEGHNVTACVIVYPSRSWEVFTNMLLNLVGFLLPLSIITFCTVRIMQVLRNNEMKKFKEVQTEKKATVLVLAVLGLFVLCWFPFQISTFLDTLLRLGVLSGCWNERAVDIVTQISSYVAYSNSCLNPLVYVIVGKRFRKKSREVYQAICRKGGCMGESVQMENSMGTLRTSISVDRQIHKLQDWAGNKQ
Method: Thus, in vitro studies were performed on standard assay systems, namely, guinea-pig ileum (GPI), rat uterus (RU) and rabbit jugular vein (RJV). […] The potency of each compound was assessed as a pA2 value according to the method of Arunlakshana & Schild, Br. J. Pharmacol. Chemother., 14:48-58 (1959). The pA2 can be defined as the negative logarithm of the molar concentration of the antagonist in the presence of which the potency of the agonist is reduced two-fold, i.e., twice the amount of agonist is required to produce a given response in the presence of, than in the absence of, the antagonist. A high potency of antagonism is indicated by a high pA2 value. i.e., a low concentration of antagonist is effective.
The percentage recovery (% Rec) was also determined for compounds with respect to each assay.
With respect to duration of activity, it is noted that after exposure to the highest concentration of antagonist, each tissue was washed extensively and then assessed for recovery from the antagonist effect.
Potency in the rat uterus assay was assessed as described above and pA2 values determined.

Structure (SMILES)	BK1 rabbit aorta IC50 (BK1 receptor)	pA2 rat uterus (BK2) (BK2 -receptor)
CC(C)C[C@H](NC(=O)[C@@H](Cc1ccccc1)NC(=O)[C@H](CO)NC(=O)[C@H](Cc1ccccc1)NC(=O)CNC(=O)[C@@H]1C[C@@H](O)CN1C(=O)[C@@H]1CCCN1C(=O)[C@H](CCCNC(=N)N)NC(=O)[C@H](N)CCCNC(=N)N)C(=O)O [CP-0253, D R--R--P--J--G--F--S--D F--L] (HELM PEPTIDE1{[dR].R.P.[Hyp].G.F.S.[dF].L}$$$$V2.0; N-terminus and C-terminus assumed)	6.9 ± 0.1	
CC(C)C[C@H](NC(=O)[C@@H](Cc1ccccc1)NC(=O)[C@H](CS)NC(=O)[C@H](Cc1ccccc1)NC(=O)CNC(=O)[C@@H]1C[C@@H](O)CN1C(=O)[C@@H]1CCCN1C(=O)[C@H](CCCNC(=N)N)NC(=O)[C@H](N)CCCNC(=N)N)C(=O)O [CP-0254, D R--R--P--J--G--F--C--D F--L] (HELM PEPTIDE1{[dR].R.P.[Hyp].G.F.C.[dF].L}$$$$V2.0; N-terminus and C-terminus assumed)	6.4 ± 0.1	
N=C(N)NCCC[C@@H](N)C(=O)N[C@@H](CS)C(=O)N1CCC[C@H]1C(=O)N1C[C@H](O)C[C@H]1C(=O)NCC(=O)N[C@@H](Cc1ccccc1)C(=O)N[C@@H](CO)C(=O)N1Cc2ccccc2C[C@@H]1C(=O)N1[C@H](C(=O)O)C[C@@H]2CCCC[C@@H]21 [CP-0363, D R--C--P--J--G--F--S--D Tic--Oic] (HELM PEPTIDE1{[dR].C.P.[Hyp].G.F.S.[O=C([C@H]1Cc2ccccc2CN1[*:1])[*:2]].[O=C(O)[C@@H]1C[C@@H]2CCCC[C@@H]2N1[*:1]]}$$$$V2.0; N-terminus and C-terminus assumed)	6.2 ± 0.3	
CC(C)C[C@H](NC(=O)[C@@H](Cc1ccccc1)NC(=O)[C@H](CO)NC(=O)[C@H](Cc1ccccc1)NC(=O)CNC(=O)[C@@H]1C[C@@H](O)CN1C(=O)[C@@H]1CCCN1C(=O)[C@H](CS)NC(=O)[C@H](N)CCCNC(=N)N)C(=O)O [CP-0376, D R--C--P--J--G--F--S--D F--L] (HELM PEPTIDE1{[dR].C.P.[Hyp].G.F.S.[dF].L}$$$$V2.0; N-terminus and C-terminus assumed)	4.9 ± 0.3	
CC(C)C[C@H](NC(=O)[C@@H]1CCCN1C(=O)[C@H](CO)NC(=O)[C@H](Cc1ccccc1)NC(=O)CNC(=O)[C@@H]1C[C@@H](O)CN1C(=O)[C@@H]1CCCN1C(=O)[C@H](CSC1CC(=O)N(CCCCCCN2C(=O)CC(SC[C@H](NC(=O)[C@H](Cc3ccccc3)NC(=O)CNC(=O)[C@@H]3C[C@@H](O)CN3C(=O)[C@@H]3CCCN3C(=O)[C@H](CCCNC(=N)N)NC(=O)[C@H](N)CCCNC(=N)N)C(=O)N[C@H](Cc3ccccc3)C(=O)N[C@@H](CC(C)C)C(=O)N[C@@H](CCCNC(=N)N)C(=O)O)C2=O)C1=O)NC(=O)[C@@H](N)CCCCN)C(=O)O (stereo partly shown) [CP-0382] (HELM PEPTIDE1{[dR].R.P.[Hyp].G.F.C.[dF].L.R}|PEPTIDE2{K.C.P.[Hyp].G.F.S.P.L}|CHEM1{[O=C1CC([*:1])C(=O)N1CCCCCCN1C(=O)CC([*:2])C1=O]}$PEPTIDE1,CHEM1,7:R3-1:R1|PEPTIDE2,CHEM1,2:R3-1:R2$$$V2.0; N-terminus and C-terminus assumed)		Agonist; also recorded: substantial partial agonism
CC(C)C[C@H](NC(=O)[C@@H]1CCCN1C(=O)[C@H](CO)NC(=O)[C@H](Cc1ccccc1)NC(=O)CNC(=O)[C@@H]1C[C@@H](O)CN1C(=O)[C@@H]1CCCN1C(=O)[C@H](CCCCN)NC(=O)[C@H](N)CCCNC(=N)N)C(=O)O [CP-0388, D R--K--P--J--G--F--S--P--L] (HELM PEPTIDE1{[dR].K.P.[Hyp].G.F.S.P.L}$$$$V2.0; N-terminus and C-terminus assumed)	6.5 ± 0.1	
CC(C)C[C@H](NC(=O)[C@@H](Cc1ccccc1)NC(=O)[C@H](CSC1CC(=O)N(CCCCCCN2C(=O)CC(SC[C@H](N)C(=O)N[C@@H](Cc3ccc(O)cc3)C(=O)N[C@H](Cc3c[nH]c4ccccc34)C(=O)N[C@H](C(=O)N[C@H](Cc3c[nH]c4ccccc34)C(=O)N[C@H](Cc3c[nH]c4ccccc34)C(=O)N[C@@H](CCCNC(=N)N)C(N)=O)C(C)C)C2=O)C1=O)NC(=O)[C@H](Cc1ccccc1)NC(=O)CNC(=O)[C@@H]1C[C@@H](O)CN1C(=O)[C@@H]1CCCN1C(=O)[C@H](CCCNC(=N)N)NC(=O)[C@H](N)CCCNC(=N)N)C(=O)N[C@@H](CCCNC(=N)N)C(=O)O (stereo partly shown) [CP-0411] (HELM PEPTIDE1{[dR].R.P.[Hyp].G.F.C.[dF].L.R}|PEPTIDE2{C.Y.[dW].V.[dW].[dW].R.[am]}|CHEM1{[O=C1CC([*:1])C(=O)N1CCCCCCN1C(=O)CC([*:2])C1=O]}$PEPTIDE1,CHEM1,7:R3-1:R1|PEPTIDE2,CHEM1,1:R3-1:R2$$$V2.0)		7.5 ± 0.1
CC(C)C[C@H](NC(=O)[C@@H](Cc1ccccc1)NC(=O)[C@H](CSC1CC(=O)N(CCCCCCN2C(=O)CC(SC[C@H](NC(=O)[C@@H](Cc3c[nH]c4ccccc34)NC(=O)[C@H](Cc3ccc(O)cc3)NC(=O)[C@@H](N)CC(=O)O)C(=O)N[C@H](Cc3c[nH]c4ccccc34)C(=O)N[C@H](Cc3c[nH]c4ccccc34)C(=O)N[C@@H](CCCNC(=N)N)C(N)=O)C2=O)C1=O)NC(=O)[C@H](Cc1ccccc1)NC(=O)CNC(=O)[C@@H]1C[C@@H](O)CN1C(=O)[C@@H]1CCCN1C(=O)[C@H](CCCNC(=N)N)NC(=O)[C@H](N)CCCNC(=N)N)C(=O)N[C@@H](CCCNC(=N)N)C(=O)O (stereo partly shown) [CP-0414] (HELM PEPTIDE1{[dR].R.P.[Hyp].G.F.C.[dF].L.R}|PEPTIDE2{D.Y.[dW].C.[dW].[dW].R.[am]}|CHEM1{[O=C1CC([*:1])C(=O)N1CCCCCCN1C(=O)CC([*:2])C1=O]}$PEPTIDE1,CHEM1,7:R3-1:R1|PEPTIDE2,CHEM1,4:R3-1:R2$$$V2.0)		7.8 ± 0.1
CC(C)C[C@H](NC(=O)[C@@H](Cc1ccccc1)NC(=O)[C@H](CSC1CC(=O)N(CCCCCCN2C(=O)CC(SC[C@H](NC(=O)[C@@H](NC(=O)[C@@H](Cc3c[nH]c4ccccc34)NC(=O)[C@H](Cc3ccc(O)cc3)NC(=O)[C@@H](N)CC(=O)O)C(C)C)C(=O)N[C@H](Cc3c[nH]c4ccccc34)C(=O)N[C@@H](CCCNC(=N)N)C(N)=O)C2=O)C1=O)NC(=O)[C@H](Cc1ccccc1)NC(=O)CNC(=O)[C@@H]1C[C@@H](O)CN1C(=O)[C@@H]1CCCN1C(=O)[C@H](CCCNC(=N)N)NC(=O)[C@H](N)CCCNC(=N)N)C(=O)N[C@@H](CCCNC(=N)N)C(=O)O (stereo partly shown) [CP-0415] (HELM PEPTIDE1{[dR].R.P.[Hyp].G.F.C.[dF].L.R}|PEPTIDE2{D.Y.[dW].V.C.[dW].R.[am]}|CHEM1{[O=C1CC([*:1])C(=O)N1CCCCCCN1C(=O)CC([*:2])C1=O]}$PEPTIDE1,CHEM1,7:R3-1:R1|PEPTIDE2,CHEM1,5:R3-1:R2$$$V2.0)		7.8 ± 0.1
CC(C)C[C@H](NC(=O)[C@@H](Cc1ccccc1)NC(=O)[C@H](CSC1CC(=O)N(CCCCCCN2C(=O)CC(SC[C@H](NC(=O)[C@@H](Cc3c[nH]c4ccccc34)NC(=O)[C@@H](NC(=O)[C@@H](Cc3c[nH]c4ccccc34)NC(=O)[C@H](Cc3ccc(O)cc3)NC(=O)[C@@H](N)CC(=O)O)C(C)C)C(=O)N[C@@H](CCCNC(=N)N)C(N)=O)C2=O)C1=O)NC(=O)[C@H](Cc1ccccc1)NC(=O)CNC(=O)[C@@H]1C[C@@H](O)CN1C(=O)[C@@H]1CCCN1C(=O)[C@H](CCCNC(=N)N)NC(=O)[C@H](N)CCCNC(=N)N)C(=O)N[C@@H](CCCNC(=N)N)C(=O)O (stereo partly shown) [CP-0416] (HELM PEPTIDE1{[dR].R.P.[Hyp].G.F.C.[dF].L.R}|PEPTIDE2{D.Y.[dW].V.[dW].C.R.[am]}|CHEM1{[O=C1CC([*:1])C(=O)N1CCCCCCN1C(=O)CC([*:2])C1=O]}$PEPTIDE1,CHEM1,7:R3-1:R1|PEPTIDE2,CHEM1,6:R3-1:R2$$$V2.0)		8.7 ± 0.2
